Laboratory results taken from patent publication US20240132484A1, “BROAD SPECTRUM ANTIVIRAL COMPOUNDS TARGETING THE SKI COMPLEX” (priority 2020, published 2024).
“And” between values parts separate entries of the source, which are not always exact repeats. Equal entries are not always repeated. “Also recorded” adds a separate entry of the source. Where two headings read alike, the source gives them in different places.

What was measured:
SARS2 = assay type: cell-based, SARS-CoV-2; conditions: for Infection Data, Average, Mean percentage infection relative to DMSO control: Average of Exp 1 (SMW491) and Exp 2 (SMW492); for Infection Data, Percentage Infection Relative to Appropriate DMSO Control: single well, avg background subtraction; for Percentage Inhibition Average 1 μM / Screening data (Relative infection to DMSO controls) Average 1 μM: SARS2, 1 μM; for Screening data (Relative infection to DMSO controls) Average 1 μM / Screening data (Relative infection to DMSO controls) Average 5 μM / Screening data (Relative infection to DMSO controls) Average 10 μM / Screening data (Relative infection to DMSO controls) Average 25 μM / Screening data (Relative infection to DMSO controls) Average 50 μM / Average (relative infection to DMSO over the 5 tested concentrations): 100=DMSO control; for Percentage Inhibition Average 5 μM / Screening data (Relative infection to DMSO controls) Average 5 μM: SARS2, 5 μM; for Percentage Inhibition Average 10 μM / Screening data (Relative infection to DMSO controls) Average 10 μM: SARS2, 10 μM; for Percentage Inhibition Average 25 μM / Screening data (Relative infection to DMSO controls) Average 25 μM: SARS2, 25 μM; for Percentage Inhibition Average 50 μM / Screening data (Relative infection to DMSO controls) Average 50 μM: SARS2, 50 μM; for Average (relative infection to DMSO over the 5 tested concentrations): SARS2, average over 1 to 50 uM; for Infection Data, Percentage Infection Relative to Appropriate DMSO Control with Avg Background Subtraction: duplicate wells, listed as SICLS61; for Infection Data, Average, Mean (Percentage Infection Relative to Appropriate DMSO Control): average of Exp 1 and Exp 2, n=4
cells (nuclei count) = conditions: for Relative cell count to DMSO controls, Average 1 μM / Relative cell count to DMSO controls, Average 5 μM / Relative cell count to DMSO controls, Average 10 μM / Relative cell count to DMSO controls, Average 25 μM / Relative cell count to DMSO controls, Average 50 μM: toxicity data, 100=DMSO control; for Toxicity Data, Average, Mean percentage relative to DMSO control: Average of Exp 1 (SMW491) and Exp 2 (SMW492); for Toxicity Data, Percentage Relative to Appropriate DMSO Control: single well; for Relative cell count to DMSO controls, Average (for correlation analysis): average value over the 5 tested concentrations (1 to 50 uM); for Toxicity Data, Average, Mean (percentage relative to appropriate DMSO control): average of Exp 1 and Exp 2, n=4

## COc1ccc(CNCCc2ccccc2F)c(OCC(O)CN2CCCC2)c1 (racemic) [SILCS43]
SARS2
  SARS2 antiviral activity: highest activity to date; also recorded: most potent
  potency relative to UMB18 (more potent): 3-4
  Percentage Inhibition Average 1 μM: 81.79%
  Screening data (Relative infection to DMSO controls) Average 1 μM: 18.21
  Percentage Inhibition Average 5 μM: 93.50%
  Screening data (Relative infection to DMSO controls) Average 5 μM: 6.50
  Percentage Inhibition Average 10 μM: 99.15%
  Screening data (Relative infection to DMSO controls) Average 10 μM: 0.85
  Percentage Inhibition Average 25 μM: 93.88%
  Screening data (Relative infection to DMSO controls) Average 25 μM: 6.12
  Percentage Inhibition Average 50 μM: 113.34%
  Screening data (Relative infection to DMSO controls) Average 50 μM: −13.34
  Average (relative infection to DMSO over the 5 tested concentrations): 3.67
SARS2; n=4, 1 uM
  Infection Data, Average, Mean percentage infection relative to DMSO control: 18.21%
SARS2; n=4, 5 uM
  Infection Data, Average, Mean percentage infection relative to DMSO control: 6.50%
SARS2; n=4, 10 uM
  Infection Data, Average, Mean percentage infection relative to DMSO control: 0.85%
SARS2; n=4, 25 uM
  Infection Data, Average, Mean percentage infection relative to DMSO control: 6.12%
SARS2; n=4, 50 uM
  Infection Data, Average, Mean percentage infection relative to DMSO control: −13.34%
SARS2; Exp 1 (SMW491), 1 uM
  Infection Data, Percentage Infection Relative to Appropriate DMSO Control: 11.14% and 9.36%
SARS2; Exp 1 (SMW491), 5 uM
  Infection Data, Percentage Infection Relative to Appropriate DMSO Control: 5.93% and 4.01%
SARS2; Exp 1 (SMW491), 10 uM
  Infection Data, Percentage Infection Relative to Appropriate DMSO Control: 0.28% and −0.66%
SARS2; Exp 1 (SMW491), 25 uM
  Infection Data, Percentage Infection Relative to Appropriate DMSO Control: 1.98% and −0.83%
SARS2; Exp 1 (SMW491), 50 uM
  Infection Data, Percentage Infection Relative to Appropriate DMSO Control: −10.07%
SARS2; Exp 2 (SMW492), 1 uM
  Infection Data, Percentage Infection Relative to Appropriate DMSO Control: 18.42% and 33.91%
SARS2; Exp 2 (SMW492), 10 uM
  Infection Data, Percentage Infection Relative to Appropriate DMSO Control: 1.81% and 1.99%
SARS2; Exp 2 (SMW492), 50 uM
  Infection Data, Percentage Infection Relative to Appropriate DMSO Control: −16.61%
SARS2; racemic mixture
  apparent IC50: high nanomolar range
Cells (nuclei count)
  Relative cell count to DMSO controls, Average 1 μM: 154.73
  Relative cell count to DMSO controls, Average 5 μM: 151.78
  Relative cell count to DMSO controls, Average 10 μM: 132.39
  Relative cell count to DMSO controls, Average 25 μM: 136.27
  Relative cell count to DMSO controls, Average 50 μM: 0.01
  Relative cell count to DMSO controls, Average (for correlation analysis): 115.04
Cells (nuclei count); n=4, 1 uM
  Toxicity Data, Average, Mean percentage relative to DMSO control: 154.73%
Cells (nuclei count); n=4, 5 uM
  Toxicity Data, Average, Mean percentage relative to DMSO control: 151.78%
Cells (nuclei count); n=4, 10 uM
  Toxicity Data, Average, Mean percentage relative to DMSO control: 132.39%
Cells (nuclei count); n=4, 25 uM
  Toxicity Data, Average, Mean percentage relative to DMSO control: 136.27%
Cells (nuclei count); n=4, 50 uM
  Toxicity Data, Average, Mean percentage relative to DMSO control: 0.01%
Cells (nuclei count); Exp 1 (SMW491), 1 uM
  Toxicity Data, Percentage Relative to Appropriate DMSO Control: 151% and 166%
Cells (nuclei count); Exp 1 (SMW491), 5 uM
  Toxicity Data, Percentage Relative to Appropriate DMSO Control: 130% and 166%
Cells (nuclei count); Exp 1 (SMW491), 10 uM
  Toxicity Data, Percentage Relative to Appropriate DMSO Control: 118% and 121%
Cells (nuclei count); Exp 1 (SMW491), 25 uM
  Toxicity Data, Percentage Relative to Appropriate DMSO Control: 121% and 136%
Cells (nuclei count); Exp 1 (SMW491), 50 uM
  Toxicity Data, Percentage Relative to Appropriate DMSO Control: 0%
Cells (nuclei count); Exp 2 (SMW492), 1 uM
  Toxicity Data, Percentage Relative to Appropriate DMSO Control: 156% and 145%
Cells (nuclei count); Exp 2 (SMW492), 5 uM
  Toxicity Data, Percentage Relative to Appropriate DMSO Control: 155% and 156%
Cells (nuclei count); Exp 2 (SMW492), 10 uM
  Toxicity Data, Percentage Relative to Appropriate DMSO Control: 145% and 146%
Cells (nuclei count); Exp 2 (SMW492), 25 uM
  Toxicity Data, Percentage Relative to Appropriate DMSO Control: 143% and 145%
Cells (nuclei count); Exp 2 (SMW492), 50 uM
  Toxicity Data, Percentage Relative to Appropriate DMSO Control: 0%

## COc1ccc(-c2[nH]ncc2C(=O)NCC2CCC2)cc1OC [SILCS54]
SARS2
  Percentage Inhibition Average 1 μM: 0.61%
  Screening data (Relative infection to DMSO controls) Average 1 μM: 99.39
  Percentage Inhibition Average 5 μM: 7.12%
  Screening data (Relative infection to DMSO controls) Average 5 μM: 92.88
  Percentage Inhibition Average 10 μM: 10.70%
  Screening data (Relative infection to DMSO controls) Average 10 μM: 89.30
  Percentage Inhibition Average 25 μM: −5.10%
  Screening data (Relative infection to DMSO controls) Average 25 μM: 105.10
  Percentage Inhibition Average 50 μM: −13.08%
  Screening data (Relative infection to DMSO controls) Average 50 μM: 113.08
  Average (relative infection to DMSO over the 5 tested concentrations): 99.95
Cells (nuclei count)
  Relative cell count to DMSO controls, Average 1 μM: 100.58
  Relative cell count to DMSO controls, Average 5 μM: 101.65
  Relative cell count to DMSO controls, Average 10 μM: 100.51
  Relative cell count to DMSO controls, Average 25 μM: 99.71
  Relative cell count to DMSO controls, Average 50 μM: 88.29
  Relative cell count to DMSO controls, Average (for correlation analysis): 98.15

## CC1=C(C(=O)NC2CCCCCC2)C(c2cccs2)NC(=O)N1 (centres unmarked) [SILCS61]
SARS2; 1 uM, Exp 1 (SMW506)
  Infection Data, Percentage Infection Relative to Appropriate DMSO Control with Avg Background Subtraction: 73.61% and 82.18%
SARS2; 1 uM, Exp 2 (SMW492), SILCS 61-66 and 67-72 plates
  Infection Data, Percentage Infection Relative to Appropriate DMSO Control with Avg Background Subtraction: 57.97% and 58.62%
SARS2; 1 uM
  Infection Data, Average, Mean (Percentage Infection Relative to Appropriate DMSO Control): 68.10%
SARS2; 5 uM, Exp 1 (SMW506)
  Infection Data, Percentage Infection Relative to Appropriate DMSO Control with Avg Background Subtraction: 41.43% and 63.29%
SARS2; 5 uM, Exp 2 (SMW492), SILCS 61-66 and 67-72 plates
  Infection Data, Percentage Infection Relative to Appropriate DMSO Control with Avg Background Subtraction: 38.94% and 52.11%
SARS2; 5 uM
  Infection Data, Average, Mean (Percentage Infection Relative to Appropriate DMSO Control): 48.94%
SARS2; 10 uM, Exp 1 (SMW506)
  Infection Data, Percentage Infection Relative to Appropriate DMSO Control with Avg Background Subtraction: 73.81% and 87.85%
SARS2; 10 uM, Exp 2 (SMW492), SILCS 61-66 and 67-72 plates
  Infection Data, Percentage Infection Relative to Appropriate DMSO Control with Avg Background Subtraction: 33.45% and 32.58%
SARS2; 10 uM
  Infection Data, Average, Mean (Percentage Infection Relative to Appropriate DMSO Control): 56.92%
SARS2; 25 uM, Exp 1 (SMW506)
  Infection Data, Percentage Infection Relative to Appropriate DMSO Control with Avg Background Subtraction: 51.60% and 90.77%
SARS2; 25 uM
  Infection Data, Average, Mean (Percentage Infection Relative to Appropriate DMSO Control): 43.41%
SARS2; 50 uM, Exp 1 (SMW506)
  Infection Data, Percentage Infection Relative to Appropriate DMSO Control with Avg Background Subtraction: −4.48% and −4.80%
SARS2; 50 uM, Exp 2 (SMW492), SILCS 61-66 and 67-72 plates
  Infection Data, Percentage Infection Relative to Appropriate DMSO Control with Avg Background Subtraction: 11.69% and 10.06%
SARS2; 50 uM
  Infection Data, Average, Mean (Percentage Infection Relative to Appropriate DMSO Control): 3.12%
SARS2
  Percentage Inhibition Average 1 μM: 31.90%
  Screening data (Relative infection to DMSO controls) Average 1 μM: 68.10
  Percentage Inhibition Average 5 μM: 51.06%
  Screening data (Relative infection to DMSO controls) Average 5 μM: 48.94
  Percentage Inhibition Average 10 μM: 43.08%
  Screening data (Relative infection to DMSO controls) Average 10 μM: 56.92
  Percentage Inhibition Average 25 μM: 56.59%
  Screening data (Relative infection to DMSO controls) Average 25 μM: 43.41
  Percentage Inhibition Average 50 μM: 96.88%
  Screening data (Relative infection to DMSO controls) Average 50 μM: 3.12
  Average (relative infection to DMSO over the 5 tested concentrations): 44.10
Cells (nuclei count); 1 uM
  Toxicity Data, Average, Mean (percentage relative to appropriate DMSO control): 106.46%
Cells (nuclei count)
  Relative cell count to DMSO controls, Average 1 μM: 106.46
  Relative cell count to DMSO controls, Average 5 μM: 110.71
  Relative cell count to DMSO controls, Average 10 μM: 107.86
  Relative cell count to DMSO controls, Average 25 μM: 109.52
  Relative cell count to DMSO controls, Average 50 μM: 104.46
  Relative cell count to DMSO controls, Average (for correlation analysis): 107.80
Cells (nuclei count); 5 uM
  Toxicity Data, Average, Mean (percentage relative to appropriate DMSO control): 110.71%
Cells (nuclei count); 10 uM
  Toxicity Data, Average, Mean (percentage relative to appropriate DMSO control): 107.86%
Cells (nuclei count); 25 uM
  Toxicity Data, Average, Mean (percentage relative to appropriate DMSO control): 109.52%
Cells (nuclei count); 50 uM
  Toxicity Data, Average, Mean (percentage relative to appropriate DMSO control): 104.46%
